Assay results as given in patent publication US3941850A, “α,α,α',α'-TETRAKIS(4-HYDROXY-3,5-DISUBSTITUTED PHENYL)XYLENE” (The Quaker Oats Company, priority 1974, dated 1976).

What was measured:
[1] = Antioxidant evaluation in cis-polyisoprene (IR carbonyl band, film in oven); conditions: 130°C oven, 0.100 g antioxidant, until carbonyl band exceeded 6 cm
Experimental: A number of candidate antioxidants were evaluated in cis-polyisoprene. Cis-polyisoprene was cut up into small pieces and dissolved overnight in a rapidly stirred solution of 500 ml of toluene. If the antioxidant was readily soluble in toluene, 0.100 g was then added to the cis-polyisoprenetoluene solution and stirred until it dissolved. If the antioxidant was not readily soluble in toluene it was dissolved in a small amount of an appropriate solvent and then added to the toluene solution. A sample of the solution was then taken up in a capillary dropper and 15 drops were placed on a circular sodium chloride plate, 1 inch in diameter. The plate was then put in a 130°C. oven for a few minutes to evaporate the toluene.
An infrared spectrum was run of the film on the plate. The plate was then put back in the oven. Every hour it was removed and another infrared spectrum was run. This procedure was repeated until appreciable oxidation had taken place as indicated by the appearance of a carbonyl band at 1700-1750 cm^^-1. The test was ended when the carbonyl band exceded 6 cm on a Perkin Elmer Infrared Spectophotometer, Model 710. This length is approximately equal to the length of the peak at 1450 cm^^-1.

[2] = Heat aging test of polypropylene film; conditions: 140°C, 5 mil film, 0.1 % by weight tetraphenolic derivative, 0 synergist
Experimental: A number of candidate stabilizers were incorporated in 5 mil thick samples of polypropylene film, and the resulting materials evaluated by heat aging the films. In some of the tests where indicated dilaurylthiodipropionate was added as synergist.
In the heat aging test, polypropylene film samples 5 mil in thickness were maintained in an oven at 140°C. Each sample was tested for loss of structural integrity. The number of hours shown in the table are the total elapsed hours before the film cracked or embrittled when flexed. The film was embrittled when it crumbled to a powder.

[3] = Solubility in ethanol and toluene; type: physicochemical; conditions: 27°C

Question: With `Cc1ccc(Cc2cc(C(c3ccc(C(c4cc(Cc5ccc(C)cc5)c(O)c(Cc5ccc(C)cc5)c4)c4cc(Cc5ccc(C)cc5)c(O)c(Cc5ccc(C)cc5)c4)cc3)c3cc(Cc4ccc(C)cc4)c(O)c(Cc4ccc(C)cc4)c3)cc(Cc3ccc(C)cc3)c2O)cc1` [Test 22] as the compound, how does the “Maximum Protection” value [1] read?
Answer: 6 h

Question: With `CC(C)(C)c1cc(C(c2ccc(C(c3cc(C(C)(C)C)c(O)c(C(C)(C)C)c3)c3cc(C(C)(C)C)c(O)c(C(C)(C)C)c3)cc2)c2cc(C(C)(C)C)c(O)c(C(C)(C)C)c2)cc(C(C)(C)C)c1O` [Test 19] as the compound, how does the “Maximum Protection” value [1] read?
Answer: 16 h

Question: Which “Maximum Protection” value [1] does the source give for `Cc1cc(C(c2ccc(C(c3cc(C)c(O)c(C(C)(C)C)c3)c3cc(C)c(O)c(C(C)(C)C)c3)cc2)c2cc(C)c(O)c(C(C)(C)C)c2)cc(C(C)(C)C)c1O` [Test 14] here?
Answer: 13 h

Question: Which “Oven Hours, Cracked” value [2] does the source give for `Cc1cc(C(c2ccc(C(c3cc(C)c(O)c(C)c3)c3cc(C)c(O)c(C)c3)cc2)c2cc(C)c(O)c(C)c2)cc(C)c1O` [Test 24] here?
Answer: 31 h

Question: What about the “Oven Hours, Embrittled” value [2] of the same compound?
Answer: 31 h

Question: Which results are given for `Cc1cc(C(c2ccc(C(c3cc(C)c(O)cc3C)c3cc(C)c(O)cc3C)cc2)c2cc(C)c(O)cc2C)c(C)cc1O` [Test 26]?
Answer: Oven Hours, Cracked [2]: 30 h; Oven Hours, Embrittled [2]: 30 h

Question: With `Cc1cc(C(c2ccc(C(c3cc(C)c(O)cc3C)c3cc(C)c(O)cc3C)cc2)c2cc(C)c(O)cc2C)c(C)cc1O` [Test 29] as the compound, how does the “Solubility, Ethanol” value [3] read?
Answer: < .14 g/100 ml

Question: And the “Solubility, Toluene” value [3]?
Answer: < .17 g/100 ml

Question: Which results are given for `Cc1cc(C(c2ccc(C(c3cc(C)c(O)c(C(C)(C)C)c3)c3cc(C)c(O)c(C(C)(C)C)c3)cc2)c2cc(C)c(O)c(C(C)(C)C)c2)cc(C(C)(C)C)c1O` [Test 30]?
Answer: Solubility, Ethanol [3]: > 9 g/100 ml; Solubility, Toluene [3]: > 9 g/100 ml

Question: With `CC(C)Cc1cc(C(c2ccc(C(c3cc(CC(C)C)c(O)c(CC(C)C)c3)c3cc(CC(C)C)c(O)c(CC(C)C)c3)cc2)c2cc(CC(C)C)c(O)c(CC(C)C)c2)cc(CC(C)C)c1O` [Test 18] as the compound, how does the “Maximum Protection” value [1] read?
Answer: 6 h

Question: For `Oc1c(Cc2ccccc2)cc(C(c2ccc(C(c3cc(Cc4ccccc4)c(O)c(Cc4ccccc4)c3)c3cc(Cc4ccccc4)c(O)c(Cc4ccccc4)c3)cc2)c2cc(Cc3ccccc3)c(O)c(Cc3ccccc3)c2)cc1Cc1ccccc1` [Test 21], which “Maximum Protection” value [1] is on record?
Answer: 7 h

Question: With `CCC(C)c1cc(C(c2ccc(C(c3cc(C(C)CC)c(O)c(C(C)CC)c3)c3cc(C(C)CC)c(O)c(C(C)CC)c3)cc2)c2cc(C(C)CC)c(O)c(C(C)CC)c2)cc(C(C)CC)c1O` (centres unmarked) [Test 17] as the compound, how does the “Maximum Protection” value [1] read?
Answer: 7 h

Question: With `CCCCC(CC)Cc1cc(C(c2ccc(C(c3cc(CC(CC)CCCC)c(O)c(CC(CC)CCCC)c3)c3cc(CC(CC)CCCC)c(O)c(CC(CC)CCCC)c3)cc2)c2cc(CC(CC)CCCC)c(O)c(CC(CC)CCCC)c2)cc(CC(CC)CCCC)c1O` (centres unmarked) [Test 20] as the compound, how does the “Maximum Protection” value [1] read?
Answer: 3 h

Question: With `Cc1cc(C(c2ccc(C(c3cc(C)c(O)c(C)c3)c3cc(C)c(O)c(C)c3)cc2)c2cc(C)c(O)c(C)c2)cc(C)c1O` [Test 12] as the compound, how does the “Maximum Protection” value [1] read?
Answer: 8 h

Question: With `Cc1cc(O)c(C(C)(C)C)cc1C(c1ccc(C(c2cc(C(C)(C)C)c(O)cc2C)c2cc(C(C)(C)C)c(O)cc2C)cc1)c1cc(C(C)(C)C)c(O)cc1C` [Test 15] as the compound, how does the “Maximum Protection” value [1] read?
Answer: 6 h

Question: With `Cc1cc(C(c2ccc(C(c3cc(C)c(O)c(C)c3)c3cc(C)c(O)c(C)c3)cc2)c2cc(C)c(O)c(C)c2)cc(C)c1O` [Test 28] as the compound, how does the “Solubility, Ethanol” value [3] read?
Answer: 3 g/100 ml

Question: And the “Solubility, Toluene” value [3]?
Answer: < .17 g/100 ml

Question: Which results are given for `Cc1cc(O)c(C(C)(C)C)cc1C(c1ccc(C(c2cc(C(C)(C)C)c(O)cc2C)c2cc(C(C)(C)C)c(O)cc2C)cc1)c1cc(C(C)(C)C)c(O)cc1C` [Test 31]?
Answer: Solubility, Ethanol [3]: > 9 g/100 ml; Solubility, Toluene [3]: < .17 g/100 ml

Question: For `CC(C)c1cc(C(c2ccc(C(c3cc(C(C)C)c(O)c(C(C)C)c3)c3cc(C(C)C)c(O)c(C(C)C)c3)cc2)c2cc(C(C)C)c(O)c(C(C)C)c2)cc(C(C)C)c1O` [Test 16], which “Maximum Protection” value [1] is on record?
Answer: 7 h

Question: For `Cc1cc(C(c2ccc(C(c3cc(C)c(O)cc3C)c3cc(C)c(O)cc3C)cc2)c2cc(C)c(O)cc2C)c(C)cc1O` [Test 13], which “Maximum Protection” value [1] is on record?
Answer: 3 h
